Measured values taken from US11370763B2, “Compounds and compositions for treating conditions associated with NLRP activity” (Novartis AG, priority 2017, dated 2022).
pIC50: −log10 of the molar value.

Test system: IL-1β production in PMA-differentiated THP-1 cells
Assay: IL-1β production in PMA-differentiated THP-1 cells stimulated with gramicidin (hTHP-1 assay containing 2% fetal bovine serum; Procedures 1-3)
Format: cell-based, human
Details: Homo sapiens, THP-1, hTHP-1 assay containing 2% fetal bovine serum; class symbols; read-out: hTHP-1 IC50 (Average IC50 of compounds in hTHP-1 assay)
Procedure, shortened: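 THP-1 cells differentiated with PMA (20 ng/ml, 16-18 h), replated in 2% FBS RPMI (50,000 cells/well), preincubated 1 h with compound (top final 100 μM, 3-fold steps, 0.37% DMSO), then stimulated 2 h with gramicidin (5 μM). Supernatant IL-1β measured by HTRF.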

Q: How did the pIC50 turn out when `Cc1cc(CN(C)C)ccc1S(N)(=O)=NC(=O)Cc1c(C(C)C)cc(OC(F)F)cc1C1CC1` (centres unmarked) [Example 26, 2-(2-cyclopropyl-4-(difluoromethoxy)-6-isopropylphenyl)-N-(4-((dimethylamino)methyl)-2-methylphenylsulfonimidoyl) acetamide] was run?
A: Its pIC50 is 5.30 to 6.00.

Q: How did the pIC50 turn out when `CC(C)c1cc(OC(F)F)cc(C(C)C)c1CC(=O)N=S(N)(=O)c1ccc(CN(C)C)cc1` (centres unmarked) [Example 27, 2-(4-(difluoromethoxy)-2,6-diisopropylphenyl)-N-(4-((dimethylamino)methyl)phenyl-sulfonimidoyl)acetamide] was run?
A: The pIC50 was 5.30 to 6.00.

Q: How did the pIC50 turn out when `CC(C)c1cc(C#N)cc(C(C)C)c1CC(=O)N=S(N)(=O)c1ccc(CN(C)C)cc1` (centres unmarked) [Example 28, 2-(4-cyano-2,6-diisopropylphenyl)-N-(4-((dimethylamino)methyl)phenyl-sulfonimidoyl)acetamide] was run?
A: The pIC50 was 5.30 to 6.00.

Q: With `CC(C)c1cc(C#N)cc(C2CC2)c1CC(=O)N=S(N)(=O)c1ccc(CN(C)C)cc1` (centres unmarked) [Example 29, 2-(4-cyano-2-cyclopropyl-6-isopropylphenyl)-N-(4-((dimethylamino)methyl)phenyl-sulfonimidoyl)acetamide] as the compound, how does the pIC50 read?
A: The pIC50 was 4.52 to 5.30.

Q: How did the pIC50 turn out when `CCc1cc(C#N)cc(C(C)C)c1CC(=O)N=S(N)(=O)c1ccc(CN(C)C)cc1` (centres unmarked) [Example 30, 2-(4-cyano-2-ethyl-6-isopropylphenyl)-N-(4-((dimethylamino)methyl)phenyl-sulfonimidoyl)acetamide] was run?
A: The pIC50 was 4.52 to 5.30.

Q: How did the pIC50 turn out when `CC(C)c1cc(F)cc(C2CC2)c1CC(=O)N=S(N)(=O)c1ccc(CN(C)C)cc1F` (centres unmarked) [Example 31, 2-(2-cyclopropyl-4-fluoro-6-isopropylphenyl)-N-(4-((dimethylamino)methyl)-2-fluorophenylsulfonimidoyl) acetamide] was run?
A: The pIC50 was 5.30 to 6.00.

Q: How did the pIC50 turn out when `CC(C)c1cc(C#N)cc(C2CC2)c1CC(=O)N=S(N)(=O)c1ccc(CN(C)C)cc1F` (centres unmarked) [Example 32, 2-(4-cyano-2-cyclopropyl-6-isopropylphenyl)-N-(4-((dimethylamino)methyl)-2-fluorophenylsulfonimidoyl) acetamide] was run?
A: Its pIC50 is 4.52 to 5.30.

Q: How did the pIC50 turn out when `CC(C)c1cc(C(F)F)cc(C(C)C)c1CC(=O)N=S(N)(=O)c1ccc(C(C)(C)O)cc1F` (centres unmarked) [Example 33, 2-(4-(difluoromethyl)-2,6-diisopropylphenyl)-N-(2-fluoro-4-(2-hydroxypropan-2-yl)phenylsulfonimidoyl)acetamide] was run?
A: The pIC50 was 6.00 to 6.70.

Q: How did the pIC50 turn out when `CC(C)c1cc(C#N)cc(C(C)C)c1CC(=O)N=S(N)(=O)c1ccc(C(C)(C)O)cc1Cl` (centres unmarked) [Example 34, N-(2-chloro-4-(2-hydroxypropan-2-yl)phenylsulfonimidoyl)-2-(4-cyano-2,6-diisopropylphenyl)acetamide] was run?
A: The pIC50 was 5.30 to 6.00.

Q: `CC(C)c1cc(C(F)F)cc(C(C)C)c1CC(=O)N=S(N)(=O)c1ccc(CN(C)C)cc1F` (centres unmarked) [Example 35, 2-(4-(difluoromethyl)-2,6-diisopropylphenyl)-N-(4-((dimethylamino)methyl)-2-fluorophenylsulfonimidoyl) acetamide] was tested. Which pIC50 did it give?
A: The pIC50 was 6.00 to 6.70.

Q: How did the pIC50 turn out when `CCc1cc(OC(F)F)cc(C(C)C)c1CC(=O)N=S(N)(=O)c1sc(C(C)(C)O)cc1F` (centres unmarked) [Example 36, 2-(4-(difluoromethoxy)-2-ethyl-6-isopropylphenyl)-N-(3-fluoro-5-(2-hydroxypropan-2-yl)thiophene-2-sulfonimidoyl)acetamide] was run?
A: The pIC50 was 6.00 to 6.70.

Q: With `CC(C)c1cc(C(F)F)cc(C(C)C)c1CC(=O)N=S(N)(=O)c1sc(C(C)(C)O)cc1F` (centres unmarked) [Example 37, 2-(4-(difluoromethyl)-2,6-diisopropylphenyl)-N-(3-fluoro-5-(2-hydroxypropan-2-yl)thiophene-2-sulfonimidoyl)acetamide] as the compound, how does the pIC50 read?
A: The pIC50 was 6.70 to 7.40.

Q: `CC(C)c1cc(C#N)cc(C(C)C)c1CC(=O)N=S(N)(=O)c1ncc(C(C)(C)O)s1` (centres unmarked) [Example 38, 2-(4-cyano-2,6-diisopropylphenyl)-N-(5-(2-hydroxypropan-2-yl)thiazole-2-sulfonimidoyl)acetamide] was tested. Which pIC50 did it give?
A: Its pIC50 is 6.00 to 6.70.

Q: With `Cc1nc(C(C)(C)O)sc1S(N)(=O)=NC(=O)Cc1c(C(C)C)cc(OC(F)F)cc1C(C)C` (centres unmarked) [Example 39, 2-(4-(difluoromethoxy)-2,6-diisopropylphenyl)-N-(2-(2-hydroxypropan-2-yl)-4-methylthiazole-5-sulfonimidoyl)acetamide] as the compound, how does the pIC50 read?
A: The pIC50 was 6.00 to 6.70.

Q: How did the pIC50 turn out when `Cc1nc(C(C)(C)O)sc1S(N)(=O)=NC(=O)Cc1c(C(C)C)cc(C#N)cc1C(C)C` (centres unmarked) [Example 40, 2-(4-cyano-2,6-diisopropylphenyl)-N-(2-(2-hydroxypropan-2-yl)-4-methylthiazole-5-sulfonimidoyl)acetamide] was run?
A: Its pIC50 is 6.00 to 6.70.

Q: `CC(C)c1ccc(F)c(C(C)C)c1CC(=O)N=S(N)(=O)c1ccc2c(cnn2C)c1` (centres unmarked) [Example 90, N-(amino(1-methyl-1H-indazol-5-yl)(oxo)-λ^6-sulfaneylidene)-2-(3-fluoro-2,6-diisopropylphenyl)acetamide] was tested. Which pIC50 did it give?
A: The pIC50 was 4.52 to 5.30.

Q: With `CC(C)c1ccc(F)c(C(C)C)c1CC(=O)N=S(N)(=O)c1ccc(CN(C)C)cn1` (centres unmarked) [Example 91, N-(amino(5-((dimethylamino)methyl)pyridin-2-yl)(oxo)-λ^6-sulfaneylidene)-2-(3-fluoro-2,6-diisopropylphenyl)acetamide] as the compound, how does the pIC50 read?
A: Its pIC50 is 4.52 to 5.30.

Q: With `CC(C)c1cc(C2(F)COC2)cc(C(C)C)c1CC(=O)N=S(N)(=O)c1ncc(C(C)(C)O)s1` (centres unmarked) [Example 94, N-(amino(5-(2-hydroxypropan-2-yl)thiazol-2-yl)(oxo)-λ^6-sulfaneylidene)-2-(4-(3-fluorooxetan-3-yl)-2,6-diisopropylphenyl)acetamide] as the compound, how does the pIC50 read?
A: The pIC50 was 5.30 to 6.00.

Q: How did the pIC50 turn out when `CCCc1cc(F)cc(CCC)c1CC(=O)N=S(N)(=O)c1cnc(C(C)(C)O)s1` (centres unmarked) [Example 95, N-(amino(2-(2-hydroxypropan-2-yl)thiazol-5-yl)(oxo)-λ^6-sulfaneylidene)-2-(4-fluoro-2,6-dipropylphenyl)acetamide] was run?
A: Its pIC50 is 6.00 to 6.70.

Q: How did the pIC50 turn out when `CC(C)c1cc(-c2ccc3c(c2)COCC3)cc(C(C)C)c1CC(=O)N=S(N)(=O)c1cnc(C(C)(C)O)s1` (centres unmarked) [Example 97, N-(amino(2-(2-hydroxypropan-2-yl)thiazol-5-yl)(oxo)-λ^6-sulfaneylidene)-2-(4-(isochroman-7-yl)-2,6-diisopropylphenyl)acetamide] was run?
A: Its pIC50 is 6.00 to 6.70.

Q: With `CC(C)(O)c1ncc(S(N)(=O)=NC(=O)Cc2c(C3CC3)cc(F)cc2C(F)(F)F)s1` (centres unmarked) [Example 98] as the compound, how does the pIC50 read?
A: Its pIC50 is 4.52 to 5.30.

Q: How did the pIC50 turn out when `CC(C)c1nc(-c2cccc(C(F)(F)F)c2)c(F)c(C(C)C)c1CC(=O)N=S(=O)(NC(=O)OC(C)(C)C)c1cnc(C(C)(C)O)s1` (centres unmarked) [Example 99, tert-butyl (N-(2-(5-fluoro-2,4-diisopropyl-6-(3-(trifluoromethyl)phenyl)pyridin-3-yl)acetyl)-2-(2-hydroxypropan-2-yl)thiazole-5-sulfonimidoyl)carbamate] was run?
A: Its pIC50 is 5.30 to 6.00.

Q: `CC(C)c1nc(-c2cccc(C(F)(F)F)c2)c(F)c(C(C)C)c1CC(=O)N=S(N)(=O)c1cnc(C(C)(C)O)s1` (centres unmarked) [Example 100] was tested. Which pIC50 did it give?
A: The pIC50 was 6.00 to 6.70.

Q: How did the pIC50 turn out when `CC(C)c1ncc(F)c(C(C)C)c1CC(=O)N=S(N)(=O)c1ccc(CN(C)C)cc1` (centres unmarked) [Example 101, N-(amino(4-((dimethylamino)methyl)phenyl)(oxo)-λ^6-sulfaneylidene)-2-(5-fluoro-2,4-diisopropylpyridin-3-yl)acetamide] was run?
A: The pIC50 was 4.52 to 5.30.

Q: How did the pIC50 turn out when `CC(C)c1cc(F)cc(C2CCOC2)c1CC(=O)N=S(N)(=O)c1cnc(C(C)(C)O)s1` (centres unmarked) [Example 102, N-(amino(2-(2-hydroxypropan-2-yl)thiazol-5-yl)(oxo)-λ^6-sulfaneylidene)-2-(4-fluoro-2-isopropyl-6-(tetrahydrofuran-3-yl)phenyl)acetamide] was run?
A: The pIC50 was 4.52 to 5.30.

Q: How did the pIC50 turn out when `CC(C)c1ccc(F)c(C(C)C)c1CC(=O)N=S(N)(=O)c1cnc(C(C)(C)O)s1` (centres unmarked) [Example 103, N-(amino(2-(2-hydroxypropan-2-yl)thiazol-5-yl)(oxo)-λ^6-sulfaneylidene)-2-(3-fluoro-2,6-diisopropylphenyl)acetamide] was run?
A: Its pIC50 is 6.00 to 6.70.

Q: With `CC(C)c1c(F)c(Cl)cc(C2CC2)c1CC(=O)N=S(N)(=O)c1cnc(C(C)(C)O)s1` (centres unmarked) [Example 104, N-(amino(2-(2-hydroxypropan-2-yl)thiazol-5-yl)(oxo)-λ^6-sulfaneylidene)-2-(4-chloro-6-cyclopropyl-3-fluoro-2-isopropylphenyl)acetamide] as the compound, how does the pIC50 read?
A: The pIC50 was 6.00 to 6.70.

Q: How did the pIC50 turn out when `COCc1cc(C(C)C)c(CC(=O)N=S(N)(=O)c2cc(C(C)(C)O)cs2)c(C(C)C)c1` (centres unmarked) [Example 105, N-(amino(4-(2-hydroxypropan-2-yl)thiophen-2-yl)(oxo)-λ^6-sulfaneylidene)-2-(2,6-diisopropyl-4-(methoxymethyl)phenyl) acetamide] was run?
A: The pIC50 was 6.70 to 7.40.

Q: `CC(C)c1ccc(F)c(C(C)C)c1CC(=O)N=S(N)(=O)c1cc(C(C)(C)O)cs1` (centres unmarked) [Example 106, N-(amino(4-(2-hydroxypropan-2-yl)thiophen-2-yl)(oxo)-λ^6-sulfaneylidene)-2-(3-fluoro-2,6-diisopropylphenyl)acetamide] was tested. Which pIC50 did it give?
A: The pIC50 was 6.70 to 7.40.

Same assay, conditions: Homo sapiens, THP-1, hTHP-1 assay containing 2% fetal bovine serum; given as numeric bound; read-out: hTHP-1 IC50 (Average IC50 of compounds in hTHP-1 assay)

Q: With `CC(C)c1cncc(C(C)C)c1CC(=O)NS(=O)(=O)c1sc(C(C)(C)O)nc1CO` [Example 92, 2-(3,5-diisopropylpyridin-4-yl)-N-((4-(hydroxymethyl)-2-(2-hydroxypropan-2-yl)thiazol-5-yl)sulfonyl)acetamide] as the compound, how does the pIC50 read?
A: The pIC50 was < 4.52.

Q: How did the pIC50 turn out when `CC(C)c1cc(C2(O)COC2)cc(C(C)C)c1CC(=O)N=S(N)(=O)c1ncc(C(C)(C)O)s1` (centres unmarked) [Example 93, N-(amino(5-(2-hydroxypropan-2-yl)thiazol-2-yl)(oxo)-λ^6-sulfaneylidene)-2-(4-(3-hydroxyoxetan-3-yl)-2,6-diisopropylphenyl)acetamide] was run?
A: The pIC50 was < 4.52.

Q: With `CC(C)c1cc(F)cc(C(C)C)c1C(C)C(=O)N=S(N)(=O)c1cnc(C(C)(C)O)s1` (centres unmarked) [Example 96, N-(amino(2-(2-hydroxypropan-2-yl)thiazol-5-yl)(oxo)-λ^6-sulfaneylidene)-2-(4-fluoro-2,6-diisopropylphenyl)propanamide] as the compound, how does the pIC50 read?
A: The pIC50 was < 4.52.
